# In PMC3574224, “Na^+ Regulation in the Malaria Parasite Plasmodiumfalciparum Involves the Cation ATPase PfATP4 and Is a Target of the Spiroindolone Antimalarials” (Cell Host & Microbe, 2013):
# How the values were obtained:
# [1] = tested on: P. falciparum Dd2 parent; assay: Parasite proliferation, [^3H]hypoxanthine incorporation, Dd2 parent; type: cell-based; conditions: Plasmodium falciparum, DD2, read-out: IC50 for inhibition of parasite proliferation by NITD246
# Description: Parasite growth assays were performed in 96-well plates over 48 hr (commencing at the ring stage) using a standard [^3H]hypoxanthine incorporation assay ([Desjardins et al., 1979]).
# Dose-response curves were obtained using the expression y = y^min + y^max/(1 + [C/IC50]^b), where y is the parameter being measured (parasite proliferation, Na^+ influx, or ATPase activity), y^min is the minimum value of y, y^max is the maximum value of y, C is the concentration of the moiety that was varied in the experiment, IC50 is the concentration at which y was reduced to 50% of y^max, and b is a fitted constant.
# [2] = biological target: T1, membrane-associated ATPase activity, Dd2^attB CAM I398F/P990R (mutant PfATP4 transfectant) (Plasmodium falciparum, UniProt A0A143ZZK9, I398F/P990R); assay: Membrane-associated ATPase activity, Dd2^attB CAM I398F/P990R; type: biochemical; conditions: concentration causing Pi production rate to decrease by half the maximal amount, read-out: IC50 for disruption of ATPase activity by NITD246
# T1 sequence (A0A143ZZK9 1-1264 I398F/P990R): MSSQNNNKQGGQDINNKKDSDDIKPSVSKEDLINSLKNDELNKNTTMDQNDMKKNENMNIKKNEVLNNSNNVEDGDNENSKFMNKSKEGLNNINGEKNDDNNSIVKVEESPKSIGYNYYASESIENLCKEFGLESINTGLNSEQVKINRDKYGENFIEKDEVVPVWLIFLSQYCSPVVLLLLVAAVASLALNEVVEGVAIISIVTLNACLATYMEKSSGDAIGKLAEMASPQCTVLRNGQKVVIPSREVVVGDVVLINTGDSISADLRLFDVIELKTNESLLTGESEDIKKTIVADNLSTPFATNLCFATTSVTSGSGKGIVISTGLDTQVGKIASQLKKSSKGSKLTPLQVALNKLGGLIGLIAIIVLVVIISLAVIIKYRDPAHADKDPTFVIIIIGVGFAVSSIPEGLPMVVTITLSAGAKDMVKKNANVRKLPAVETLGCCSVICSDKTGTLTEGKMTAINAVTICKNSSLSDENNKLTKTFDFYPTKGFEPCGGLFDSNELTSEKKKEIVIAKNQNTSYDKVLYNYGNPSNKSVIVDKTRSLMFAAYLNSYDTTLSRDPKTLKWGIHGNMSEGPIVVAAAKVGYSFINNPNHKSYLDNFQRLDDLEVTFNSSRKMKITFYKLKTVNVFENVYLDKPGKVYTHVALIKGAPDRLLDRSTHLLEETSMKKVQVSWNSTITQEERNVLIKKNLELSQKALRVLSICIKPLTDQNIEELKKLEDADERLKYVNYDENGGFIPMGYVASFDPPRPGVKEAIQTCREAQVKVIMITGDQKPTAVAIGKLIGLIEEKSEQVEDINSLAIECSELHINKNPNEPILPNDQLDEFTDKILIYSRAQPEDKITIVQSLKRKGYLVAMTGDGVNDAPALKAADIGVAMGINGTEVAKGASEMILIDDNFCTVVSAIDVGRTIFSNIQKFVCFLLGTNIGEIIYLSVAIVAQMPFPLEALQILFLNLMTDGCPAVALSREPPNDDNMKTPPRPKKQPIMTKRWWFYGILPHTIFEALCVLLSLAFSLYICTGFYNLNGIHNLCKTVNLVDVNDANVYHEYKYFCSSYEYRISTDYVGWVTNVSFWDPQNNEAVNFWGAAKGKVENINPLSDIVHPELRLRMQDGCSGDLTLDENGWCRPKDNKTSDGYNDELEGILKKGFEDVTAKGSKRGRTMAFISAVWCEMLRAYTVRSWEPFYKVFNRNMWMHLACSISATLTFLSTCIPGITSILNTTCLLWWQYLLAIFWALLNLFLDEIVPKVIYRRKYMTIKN
# Description: For the preparation of uninfected erythrocyte membranes, packed uninfected erythrocytes were lysed by incubation for 5 min in ice-cold PBS containing 0.1% (w/v) saponin together with 1/500 Protease Inhibitor Cocktail Set III (Calbiochem). The erythrocyte ghosts were pelleted by centrifugation (12,000 × g, 10 min) and washed three times in ice-cold water (12,000 × g, 10 min) immediately prior to their use in the ATPase assay. To prepare membranes from parasitised erythrocytes, saponin-isolated parasites were lysed by suspension in ice-cold water (containing 1/500 Protease Inhibitor Cocktail Set III) then washed three times in ice-cold water (12,000 × g, 10 min) before their immediate use in the ATPase assay. The ATPase activity of membrane preparations from uninfected erythrocytes and saponin-isolated parasites was estimated from the rate of hydrolysis of ATP and measured using the PiColorLock Gold Phosphate (Pi) Detection System (Innova Biosciences). Briefly, membrane preparations from 1–3 × 10^8 cells were suspended in reaction buffer (100 mM of either NaCl or choline chloride, 50 mM Tris-HCl, 20 mM KCl, and 2 mM MgCl2) at 37°C. The ATPase reaction was initiated by the addition of 0.25 mM Na2ATP. Note that it was necessary to use the Na^+ salt of ATP, rather than the K^+ and Mg^2+ salts, as the latter both contain residual Pi that saturated the Pi detection system. […]
smiles,measurement,setting,value
C[C@H]1Cc2c([nH]c3cc(F)c(F)cc23)[C@@]2(N1)C(=O)Nc1ccc(Cl)cc12 [NITD246],IC50,[1],0.08 ± 0.01 nM
same,IC50,[2],0.17 ± 0.12 nM
